{"source": "patent US20240269139A1", "about": "“COMPOUNDS FOR TARGETED PROTEIN DEGRADATION OF KINASES” (DANA-FARBER CANCER INSTITUTE, INC., priority 2020, published 2024)", "type_in_all_cases": "cell-based", "key": {"[1]": {"biological_target": "protein kinases (human kinome) (Homo sapiens, UniProt Q2M2I8)", "sequence (Q2M2I8 whole entry)": "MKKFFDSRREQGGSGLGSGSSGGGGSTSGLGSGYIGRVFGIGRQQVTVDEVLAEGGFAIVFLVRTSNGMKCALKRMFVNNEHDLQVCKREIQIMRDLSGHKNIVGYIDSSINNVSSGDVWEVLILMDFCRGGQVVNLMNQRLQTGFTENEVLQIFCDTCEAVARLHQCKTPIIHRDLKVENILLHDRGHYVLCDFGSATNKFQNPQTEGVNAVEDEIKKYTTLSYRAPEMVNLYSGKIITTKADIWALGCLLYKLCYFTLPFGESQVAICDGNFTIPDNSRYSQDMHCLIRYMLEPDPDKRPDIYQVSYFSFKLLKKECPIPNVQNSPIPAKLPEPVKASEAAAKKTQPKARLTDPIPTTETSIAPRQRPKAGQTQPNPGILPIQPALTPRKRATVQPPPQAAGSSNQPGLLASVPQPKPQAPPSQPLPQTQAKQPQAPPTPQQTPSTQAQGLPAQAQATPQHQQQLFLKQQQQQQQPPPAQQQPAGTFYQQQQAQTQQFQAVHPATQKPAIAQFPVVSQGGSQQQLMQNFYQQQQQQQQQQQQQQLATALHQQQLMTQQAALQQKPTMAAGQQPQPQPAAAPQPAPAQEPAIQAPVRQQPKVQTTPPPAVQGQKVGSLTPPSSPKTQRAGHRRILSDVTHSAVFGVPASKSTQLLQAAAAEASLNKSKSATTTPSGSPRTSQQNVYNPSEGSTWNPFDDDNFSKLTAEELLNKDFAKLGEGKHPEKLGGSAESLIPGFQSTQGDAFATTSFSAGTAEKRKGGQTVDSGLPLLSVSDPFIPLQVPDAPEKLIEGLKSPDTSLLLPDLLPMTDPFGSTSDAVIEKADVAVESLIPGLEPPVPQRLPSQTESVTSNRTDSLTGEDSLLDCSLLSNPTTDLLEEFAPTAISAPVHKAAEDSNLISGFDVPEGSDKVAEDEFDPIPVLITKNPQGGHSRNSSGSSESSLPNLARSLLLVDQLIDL"}, "[2]": {"system": "protein kinases (human kinome)"}, "[3]": {"biological_target": "protein kinases (human kinome) (Homo sapiens, UniProt P11802)", "sequence (P11802 whole entry)": "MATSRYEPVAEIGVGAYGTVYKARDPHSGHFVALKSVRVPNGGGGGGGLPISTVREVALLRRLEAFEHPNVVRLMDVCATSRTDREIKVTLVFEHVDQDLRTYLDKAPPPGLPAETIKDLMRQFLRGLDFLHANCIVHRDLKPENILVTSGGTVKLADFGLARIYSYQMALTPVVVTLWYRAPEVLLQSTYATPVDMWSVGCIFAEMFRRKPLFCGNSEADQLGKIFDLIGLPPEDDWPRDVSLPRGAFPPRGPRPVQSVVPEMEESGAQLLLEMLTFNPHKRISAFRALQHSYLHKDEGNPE", "settings": "experiment wp076"}, "[4]": {"settings": "AURKB Q96GD4-5, experiment wp134"}, "[5]": {"settings": "CDK9 (P50750-2) protein abundance, degrader vs DMSO, down"}, "[6]": {"settings": "AAK1 (Q2M218-1), experiment wp195, down"}, "[7]": {"settings": "AAK1, accession Q2M218-1, experiment wp195, direction of change down"}, "[8]": {"settings": "Accession O60566-3, experiment wp076, direction down"}, "[9]": {"settings": "BUB1B (O60566-3), experiment wp076"}, "[10]": {"settings": "CSNK1A1 (P48729-2), experiment wp076"}, "[11]": {"settings": "CLK1 P49759-3, experiment wp076"}}, "note": "Read-outs that look alike come from different tables or passages of the source.", "data": [{"smiles": "O=C(COc1cccc2c1C(=O)N(C1CCC(=O)NC1=O)C2=O)NCCCCCCCN1CCc2cc(Nc3ncc(C4CC4)c(NCCCNC(=O)C4CCC4)n3)ccc2C1", "note": "(stereo not shown) [BSJ.04.178]", "values": [{"measurement": "logFC AAK1", "setting": "[1]; AAK1 (Q2M218-1), experiment wp134, down", "result": "−3.342"}, {"measurement": "logFC AAK1", "setting": "[1]; AAK1, accession Q2M218-1, experiment wp134, direction of change down", "result": "−3.342"}, {"measurement": "logFC", "setting": "[2]; [4]", "result": "−0.5074"}, {"measurement": "logFC AURKB", "setting": "[2]; [4]", "result": "−0.5074"}, {"measurement": "logFC", "setting": "[2]; [5]", "result": "−1.43"}, {"measurement": "logFC", "setting": "[2]; MARK3 (P27448-5), experiment wp134", "result": "−0.4977"}, {"measurement": "logFC CDK9 (P50750-2)", "setting": "[2]; experiment wp134", "result": "−1.43"}, {"measurement": "logFC MARK3 (P27448-5)", "setting": "[2]; experiment wp134, direction of change down", "result": "−0.4977"}]}, {"smiles": "Cc1ncsc1-c1ccc([C@H](C)NC(=O)[C@@H]2C[C@@H](O)CN2C(=O)[C@@H](NC(=O)CCCCCN2CCc3cc(Nc4ncc(C5CC5)c(NCCCNC(=O)C5CCC5)n4)ccc3C2)C(C)(C)C)cc1", "note": "[BSJ.05.026]", "values": [{"measurement": "logFC AAK1", "setting": "[1]; [6]", "result": "−3.073"}, {"measurement": "logFC AAK1", "setting": "[1]; [7]", "result": "−3.073"}, {"measurement": "logFC", "setting": "[2]; MARK3 (P27448-5), experiment wp195", "result": "−0.8242"}, {"measurement": "logFC MARK3 (P27448-5)", "setting": "[2]; experiment wp195, direction of change down", "result": "−0.8242"}]}, {"smiles": "Cc1cnc(Nc2ccc(N3CCN(CCCCCCC(=O)N[C@H](C(=O)N4C[C@H](O)C[C@H]4C(=O)N[C@@H](C)c4ccc(-c5scnc5C)cc4)C(C)(C)C)CC3)cc2)nc1Nc1cccc(S(=O)(=O)NC(C)(C)C)c1", "note": "[JWG.123]", "values": [{"measurement": "logFC AAK1", "setting": "[1]; [6]", "result": "−1.091"}, {"measurement": "logFC AAK1", "setting": "[1]; [7]", "result": "−1.091"}]}, {"smiles": "CCc1cnn2c(N(Cc3ccc(N)nc3)C(=O)CCOCCOCCOCCNC(=O)CNc3cccc4c3C(=O)N(C3CCC(=O)NC3=O)C4=O)cc(N3CCCC[C@H]3CCO)nc12", "note": "(stereo partly shown) [MFH.5.115.2]", "values": [{"measurement": "logFC CDK4 (P11802)", "setting": "[3]", "result": "−0.7246"}, {"measurement": "logFC BUB1B", "setting": "[2]; [8]", "result": "−0.5013"}, {"measurement": "logFC BUB1B", "setting": "[2]; [9]", "result": "−0.5013"}, {"measurement": "logFC", "setting": "[2]; [10]", "result": "−0.349"}, {"measurement": "logFC of CSNK1A1 (P48729-2)", "setting": "[2]; experiment wp076", "result": "−0.349"}]}, {"smiles": "O=C1CCC(N2C(=O)c3cccc(NCCCCCCCCN4CCC(NC(=O)c5[nH]ncc5NC(=O)c5c(Cl)cccc5Cl)CC4)c3C2=O)C(=O)N1", "note": "(stereo not shown) [MFH.5.126.1]", "values": [{"measurement": "logFC CDK4 (P11802)", "setting": "[3]", "result": "−0.608"}, {"measurement": "logFC BUB1B", "setting": "[2]; [8]", "result": "−0.7532"}, {"measurement": "logFC CSNK1D", "setting": "[2]; Accession P48730-2, experiment wp076, direction down", "result": "−0.9201"}, {"measurement": "logFC GSK3B", "setting": "[2]; Accession P49841-2, experiment wp078, direction down", "result": "−0.9629"}, {"measurement": "logFC BUB1B", "setting": "[2]; [9]", "result": "−0.7532"}, {"measurement": "logFC", "setting": "[2]; [5]", "result": "−0.7008"}, {"measurement": "logFC", "setting": "[2]; [11]", "result": "−1.494"}, {"measurement": "logFC CLK1", "setting": "[2]; [11]", "result": "−1.494"}, {"measurement": "logFC", "setting": "[2]; [10]", "result": "−0.4586"}, {"measurement": "logFC CSNK1D", "setting": "[2]; CSNK1D P48730-2, experiment wp076", "result": "−0.9201"}, {"measurement": "logFC DAPK1 (P53355-3)", "setting": "[2]; Experiment wp076, direction of change down", "result": "−0.4488"}, {"measurement": "logFC GSK3B", "setting": "[2]; GSK3B P49841-2, experiment wp076", "result": "−0.9629"}, {"measurement": "logFC CDK9 (P50750-2)", "setting": "[2]; experiment wp076", "result": "−0.7008"}, {"measurement": "logFC of CSNK1A1 (P48729-2)", "setting": "[2]; experiment wp076", "result": "−0.4586"}, {"measurement": "logFC DAPK1", "setting": "[2]; protein DAPK1 (P53355-3), experiment wp076, down", "result": "−0.4488"}]}, {"smiles": "Cc1ccc(C(=O)Nc2ccc(CN3CCN(CCCOCCOCCOCCNC(=O)COc4cccc5c4C(=O)N(C4CCC(=O)NC4=O)C5=O)CC3)c(C(F)(F)F)c2)cc1C#Cc1cnc2cccnn12", "note": "(stereo not shown) [SB1-G-187, N-(4-((4-(1-((2-(2,6-dioxopiperidin-3-yl)-1,3-dioxoisoindolin-4-yl)oxy)-2-oxo-6,9,12-trioxa-3-azapentadecan-15-yl)piperazin-1-yl)methyl)-3 (trifluoromethyl)phenyl)-3-(imidazo[1,2-b]pyridazin-3-ylethynyl)-4-methylbenzamide]", "values": [{"measurement": "kinases the bifunctional compound degrades", "setting": "[2]; as stated for the structure in the embodiments", "result": "ABL1, ABL2, BLK, CDK14, CDK17, CDK5. CDK6, COQ8A, EPHA1, EPHA2, FER, FYN, GAK, IRAK1, LCK, LYN, MAP3K1, MAP3K20, MAP3K7, MAP4K2, MAP4K5, MAPK14, PDK1, PDK2, PDK3, RIPK1, RIPK2, SRC, STK10, TAOK3, and YES1"}, {"measurement": "Kinase hits", "setting": "[2]; kinases significantly downregulated vs DMSO (fold change cutoff −1.25, P-value<0.01), ≤8 h, 0.1-5 μM degrader, 7 cell lines", "result": "ABL1, ABL2, BLK, CDK14, CDK17, CDK5, CDK6, COQ8A, EPHA1, EPHA2, FER, FYN, GAK, IRAK1, LCK, LYN, MAP3K1, MAP3K20, MAP3K7, MAP4K2, MAP4K5, MAPK14, PDK1, PDK2, PDK3, RIPK1, RIPK2, SRC, STK10, TAOK3, YES1,"}, {"measurement": "Total no. kinase hits", "setting": "[2]; number of degraded kinases per library compound", "result": 31}]}]}
